Results as given in patent US11026381B2, “Method for producing haploid, dihaploid and doubled haploid plants by isolated microspore culture” (Vilmorin & Cie, priority 2015, dated 2021).

Legend:
[1] = tested on: isolated microspores of Cucumis sativus; test: Isolated microspore culture (IMC) of cucumber with HDACi and/or polyamine: formation and classification of multicellular structures; assay type: cell-based; details: for Classification of the multicellular structures / Response (% of formation of multicellular structures): no polyamine
Description: The solution of microspore is diluted to a concentration of about 30,000-150,000 cells/mL using a haemocytometer to count the microspore density. This is done in a Microspore Embryogenesis Induction Medium (MEIM), which components are described in Table 7. The solution is aliquoted by 4-6 mL into 60 mm×50 mm petri plates and sealed, for a heat shock of 24-72 hour at 30-33° C. in the dark.
The isolated microspores are then cultured in the dark at 22-28° C. for about four to five weeks until globular embryos can be seen by bare eyes.
The MEIM medium complemented with polyamine is referred to as a Microspore embryo development medium (MEDM) which components are described in Table 7.
One will note that the Response % is the percentage of formation of multicellular structures, not the analysis or classification of such structures as normal or abnormal. The last column (classification of the multicellular structures) reflects the observation of the multicellular structures according to criteria which defines whether they are normal or abnormal, i.e. uniformity of the cells, and compactness of the multicellular structures.

[2] = tested on: globular embryos; test: Elongation of globular embryos (bilayer culture system); assay type: cell-based, Cucumis sativus; details: in liquid embryo culture medium
Excerpt: In one embodiment, the LECM comprises one or more HDACi and/or one or more polyamines, preferably both HDACi and polyamine. The HDACi and/or the polyamine can be selected from the above lists, and can be present in any of the aforementioned quantities, in the LECM. In certain embodiments, the LECM further comprises plant growth regulators, in particular selected from auxins, cytokinins, gibberellins, abscisic acid, and mixtures thereof. In a preferred embodiment, the LECM comprises abscisic acid, in an amount effective to enable the development of the embryos. In particular, the LECM comprises from 0.5 to 5 ppm abscisic acid, still preferably from 1 to 2 ppm abscisic acid.
Globular embryos are visible after 20 to 40 days of culture in MEDM medium. To obtain elongated embryos, the inventors have used a bilayer culture system on a rotary shaker at 50-70 rpm in the dark for about 30 day, which has enabled the elongation of the embryos (FIG. 2E to 2G). The bilayer culture system is made of two layers, one lower solid medium made of MEEM with activated charcoal and solidified with 7 g/L agar (see Table 7) and one upper liquid medium, still made of MEDM supplemented with 1-2 ppm abscisic acid and containing the embryos to be elongated.

[3] = tested on: isolated microspores; test: Test of various compounds within the IMC media (all with SAHA 10 μM); assay type: cell-based, Cucumis sativus; details: in association with SAHA
Description: Isolated microspores are obtained according to the method described in Example 2, and cultured. […] All media comprise M404 basal medium and carbohydrates as in the MEIM composition described in Table 7, supplemented with 10 μM SAHA plus various other additional compounds. “Event” represents embryogenic callus or embryos.
The microspore cultures are evaluated for their production of multicellular structures and/or normal embryos.

Compound: O=C(CCCCCCC(=O)Nc1ccccc1)NO [SAHA, suberoylanilide hydroxamic acid]
- Classification of the multicellular structures ([1]; cultivar HMX4453, SAHA 10 μM): Abnormal
- Response (% of formation of multicellular structures) ([1]; cultivar HMX4453, SAHA 10 μM): 9.6%
- Classification of the multicellular structures ([1]; cultivar PI518848, SAHA 5 μM): Abnormal
- Response (% of formation of multicellular structures) ([1]; cultivar PI518848, SAHA 5 μM): 13.7%
- Classification of the multicellular structures ([1]; cultivar PI518848, SAHA 10 μM): Abnormal
- Response (% of formation of multicellular structures) ([1]; cultivar PI518848, SAHA 10 μM): 17.3%
- multicellular microspore formations ([1]; isolated microspore cultures with SAHA but without polyamine): more present but are abnormal

Compound: CC1=CC(=O)CC(C)(C)[C@@]1(O)/C=C/C(C)=C\C(=O)O [Abscisic acid, abscisic acid]
- effect on elongation of the embryos [2]: positive effect

Compound: CC(/C=C/C(=O)NO)=C\[C@@H](C)C(=O)c1ccc(N(C)C)cc1 [TSA, trichostatin A]
- response compared with SAHA ([1]; another HDACi tested in isolated microspore culture): lower response than for the SAHA
- Classification of the multicellular structures ([1]; cultivar PI518848, TSA 0.5 μM): Abnormal
- Response (% of formation of multicellular structures) ([1]; cultivar PI518848, TSA 0.5 μM): 4.3%

Compound: NCCCCN [Putrescine, putrescine]
- development of normal embryos from the isolated microspores [3]: enable the development of normal embryos
